# Test results taken from US11498909B2, “Compound acting as antibiotics” (KBP BIOSCIENCES CO., LTD., priority 2018, dated 2022).
# Like-named read-outs stand apart in the source and are kept apart here.
# Key:
# [1] = system: polymyxin-resistant mcr-1 positive Enterobacteriaceae; assay: In vitro antibacterial effect on polymyxin-resistant mcr-1 positive Enterobacteriaceae, agar dilution MIC (Experiment 2); type: cell-based, Escherichia coli; conditions: for MIC50 Value / MIC90 Value: polymyxin-resistant mcr-1 positive Escherichia coli, agar dilution; for MIC50 / MIC90: Escherichia coli; for MIC50: read-out: MIC50 Value, polymyxin-resistant mcr-1 positive Escherichia coli, agar dilution; for MIC90: read-out: MIC90 Value, polymyxin-resistant mcr-1 positive Escherichia coli, agar dilution
# Experimental: Tested samples: the compounds of the present invention, prepared according to the methods of the preparation examples;
# Polymyxin E sulphate, Ampicillin, Cefotaxime, Gentamicin, Ciprofloxacin, Tetracycline, and Bactrim were all commercial products, the following experiments were carried out according to the content of an effective ingredient in each commercial product.
# Tested strains: Escherichia coli carrying mcr-1 gene isolated from animals and Escherichia coli ATCC25922, a quality control strain, were provided by South China Agricultural University.
# With reference to the agar dilution method in CLSI, the MIC value of the tested drugs to the polymyxin resistant mcr-1 positive Escherichia coli were determined.
# Preparation of drug-containing agar plates: a drug solution with the highest concentration was prepared for each compound; the drug solution with the highest concentration was subjected to the double dilution; for each of dilution gradient, 1 mL (20×drug working solution) of the drug solution was added to 19 mL MH agar at 45-50° C.; immediately after addition, the agar and the drug solution were uniformly mixed to give a drug-containing agar plate with final concentrations of […], and the plate was solidified for later use; and in the meanwhile, a growth control group was arranged.
# Inoculum preparation and culture: the strains stored at −80° C. were rejuvenated and formulated with broth so that the turbidity reached or exceeded 0.5 #McFarland unit; a 96-well plate was used as the inoculation tank, and the bacterial solution was diluted with sodium chloride injection so that the content of bacteria inoculated on the agar was 10^4 CFU/point. A multi-point inoculation instrument was used to inoculate the bacterial solution to the surface of the labeled drug-containing agar. After the water in the inoculation point was completely absorbed by the agar, the plate was placed upside down in a 37° C. constant-temperature incubator and incubated for 16-20 hours.
# [2] = system: Pseudomonas aeruginosa; assay: In vitro antibacterial activity, agar dilution MIC (Experiment 1); type: cell-based; conditions: agar dilution (Table 3)
# Experimental: (§1) Tested strains: all the clinically separated strains below were purchased from public facilities.
# (§2) Escherichia coli ATCC25922, Pseudomonas aeruginosa ATCC27853, Klebsiella pneumoniae ATCC700603, and the like.
# (§3) Tested Samples: Imipenem, Ceftazidime: Commercial Products, the Following Experiments were Carried Out According to the Content of an Effective Ingredient in Each Commercial Product;
# (§4) The compounds of the present invention, their chemical names, and preparation methods are shown in the preparation example of each compound.
# (§5) Experiment method: Agar dilution method, refer to National Committee for Clinical Laboratory Standards. 2006. Methods for Dilution Antimicrobial Susceptibility Tests for Bacteria That Grow Aerobically; Approved Standard—Seventh Edition M7-A7, Vol 26, No. 2, 2006, to determine the MIC of the compound. MIC represents the minimum inhibitory concentration.
# [3] = Pharmacokinetics (PK) determination in SD rats (Experiment 4); type: in vivo; conditions: plasma; for Cl_obs / Vz_obs / t1/2z / λ_z / AUCINF_obs / AUClast: IV 2 mg/kg; for AUC(0-t) / AUC(0-inf): Sprague-Dawley (SD), rat, iv; for AUC(0-inf): read-out: AUCINF_obs
# Experimental: The compound of the present invention, self-prepared and dissolved in a suitable solvent.
# Instrument and equipment: API4000 LC-MS/MS
# Chromatographic column: Waters XBridge C18(2.1×50 mm, […])
# Rat blood collection: Animals were fixed. The animal's tail was heated with a water bathtub 10 minutes before each time point. About 200 μL of the blood was collected through the caudal vein. After the blood collection, the blood was placed in an anticoagulation tube containing heparin sodium. The blood samples were centrifuged at 8000 rpm for 6 minutes at 4° C. to obtain plasma samples. The plasma must be prepared within 30 minutes after the blood collection. The plasma was stored in a refrigerator at −80° C. before the test.
# (1) Test samples were removed from the refrigerator (−80° C.), naturally thawed at room temperature, and then vortexed for 5 minutes;
# (2) 20 μL sample was precisely pipetted to a 1.5 mL centrifuge tube;
# (3) 200 μL of the internal standard solution was added;
# (4) The mixture was vortexed for 5 minutes and centrifuged for 5 minutes (12000 revolutions per minute);
# (5) 100 μL of the supernate was precisely pipetted, 100 μL of water was added, the mixture was vortexed for 5 minutes, and the sample was sent to LC-MS/MS for analysis.
# The results of the concentrations of the test samples (plasma samples) were output with Analyst 1.6.1 of AB Corporation. The meaning value, the standard deviation, the coefficient of variation, and other parameters (not necessary to calculate the parameter that can be directly output from Analyst 1.6.1) were calculated with Microsoft Excel, and the PK parameter is calculated with Pharsight Phoenix 6.1 software.
# [4] = system: Escherichia coli; assay: In vitro antibacterial activity, agar dilution MIC (Experiment 1); type: cell-based; conditions: agar dilution
# Experimental: as §1, §2, §3, §4, §5
Molecule,MIC50 ([2]; read-out: MIC50) [µg/mL],MIC90 ([2]; read-out: MIC90) [µg/mL],MIC50 [1] [µg/mL],MIC90 [1] [µg/mL],Cl_obs [3] [mL/min/kg],Vz_obs [3] [L/kg],t1/2z [3] [min],λ_z [3] [h⁻¹],AUC(0-t) ([3]; 2 mg/kg) [ng·h/mL],AUC(0-inf) ([3]; 2 mg/kg) [ng·h/mL],further results
Gentamicin,,,,,,,,,,,MIC50 Value [1]: 4 µg/mL; MIC90 Value [1]: 64 µg/mL
"C[C@@H](O)[C@H]1C(=O)N2C(C(=O)O)=C(SCCN=CN)C[C@H]12 [Imipenem, reference compound]",2,16,0.125,4,,,,,,,
"Cc1cc(C#CC#Cc2ccc(C(=O)N[C@H](C(=O)NO)[C@@H](C)O)cc2)oc1CO [Compound 16, N-((2S,3R)-3-hydroxy-1-(hydroxyamino)-1-oxobutan-2-yl)-4-((5-(hydroxymethyl)-4-methylfuran-2-yl)buta-1,3-diynyl)benzamide]",0.5,2,,,12 ± 0.67,0.47 ± 0.16,27 ± 8.4,1.67 ± 0.58,2780 ± 130,2790 ± 136,
Polymyxin E sulphate,,,,,,,,,,,MIC50 Value [1]: 16 µg/mL; MIC90 Value [1]: 32 µg/mL
"C[C@@H](O)[C@H](NC(=O)c1ccc(C#CC#Cc2ccc(CNCCCN3CCOCC3)o2)cc1)C(=O)NO [Compound 22, N-((2S,3R)-3-hydroxy-1-(hydroxyamino)-1-oxobutan-2-yl)-4-((5-((3-morpholinopropylamino)methyl)furan-2-yl)buta-1,3-diynyl)benzamide]",4,> 16,,,,,,,,,MIC50 ([4]; read-out: MIC50): 0.5 µg/mL; MIC90 ([4]; read-out: MIC90): 2 µg/mL
"C[C@@H](O)[C@H](NC(=O)c1ccc(C#CC#Cc2ccc(CNCCOCCO)s2)cc1)C(=O)NO [Compound 42, N-((2S,3R)-3-hydroxy-1-(hydroxyamino)-1-oxobutan-2-yl)-4-((5-((2-(2-hydroxyethoxy)ethylamino)methyl)thienyl-2-yl)buta-1,3-diynyl)benzamide]",0.5,4,,,84.3 ± 9.17,2.16 ± 0.30,18 ± 0.6,2.35 ± 0.07,396 ± 41,398 ± 41,
"CNCc1ccc(C#CC#Cc2ccc(C(=O)N[C@H](C(=O)NO)[C@@H](C)O)cc2)o1 [Compound 15, N-((2S,3R)-3-hydroxy-1-(hydroxyamino)-1-oxobutan-2-yl)-4-((5-((methylamino)methyl)furan-2-yl)buta-1,3-diynyl)benzamide]",0.5,2,,,25.2 ± 4.5,1.57 ± 0.28,44.4 ± 13.2,0.99 ± 0.29,1330 ± 108,1350 ± 222,
CO/N=C(\C(=O)N[C@@H]1C(=O)N2C(C(=O)O)=C(COC(C)=O)CS[C@H]12)c1csc(N)n1 [Cefotaxime],,,2,128,,,,,,,
C[C@@H](O)[C@H](NC(=O)c1ccc(C#CC#Cc2ccco2)cc1)C(=O)NO [Compound 20],,,,,107 ± 16,3.77 ± 0.53,24.6 ± 0.6,1.70 ± 0.03,,,MIC50 [2]: 0.25 µg/mL; MIC90 [2]: 1 µg/mL; AUCINF_obs [3]: 791 ± 117 ng·h/mL; AUClast [3]: 778 ± 116 ng·h/mL
CN(C)[C@@H]1C(O)=C(C(N)=O)C(=O)[C@@]2(O)C(O)=C3C(=O)c4c(O)cccc4[C@@](C)(O)[C@H]3C[C@@H]12 [Tetracycline],,,32,64,,,,,,,
"C[C@H](O)[C@H](NC(=O)c1ccc(C#CC#Cc2ccc(CO)o2)cc1)C(=O)NO [Compound 10, N-((2S,3S)-3-hydroxy-1-(hydroxyamino)-1-oxobutan-2-yl)-4-((5-(hydroxymethyl)furan-2-yl)buta-1,3-diynyl)benzamide]",,,,,,,,,,,MIC50 [2]: 0.125 µg/mL; MIC90 [2]: 1 µg/mL; AUCINF_obs ([3]; 2 mg/kg): 4902 ± 532 ng·h/mL; AUClast ([3]; 2 mg/kg): 4891 ± 533 ng·h/mL; Cl_obs ([3]; 2 mg/kg): 17.2 ± 1.83 mL/min/kg; Vz_obs ([3]; 2 mg/kg): 1.03 ± 0.11 L/kg; t1/2z ([3]; 2 mg/kg): 44.4 ± 9.6 min; λ_z ([3]; 2 mg/kg): 0.97 ± 0.23 h⁻¹
"C[C@@H](O)[C@H](NC(=O)c1ccc(C#CC#Cc2ccc(CN3CCN(C)CC3)o2)cc1)C(=O)NO [Compound 13, N-((2S,3R)-3-hydroxy-1-(hydroxyamino)-1-oxobutan-2-yl)-4-((5-((4-methylpiperazin-1-yl)methyl)furan-2-yl)buta-1,3-diynyl)benzamide]",2,8,,,69 ± 11.7,2.09 ± 0.39,21 ± 0.6,1.98 ± 0.04,485 ± 87.4,493 ± 87.9,
"C[C@@H](O)[C@H](NC(=O)c1ccc(C#CC#Cc2ccc(COCCOCCO)o2)cc1)C(=O)NO [Compound 21, N-((2S,3R)-3-hydroxy-1-(hydroxyamino)-1-oxobutan-2-yl)-4-((5-((2-(2-hydroxyethoxy)ethoxy)methyl)furan-2-yl)buta-1,3-diynyl)benzamide]",1,4,,,24.2 ± 4.83,0.33 ± 0.07,9.6 ± 0.6,4.38 ± 0.25,1400 ± 256,1420 ± 255,
"C[C@@H](O)[C@H](NC(=O)c1ccc(C#CC#Cc2ccc(CN3CCOCC3)s2)cc1)C(=O)NO [Compound 43, N-((2S,3R)-3-hydroxy-1-(hydroxyamino)-1-oxobutan-2-yl)-4-((5-(morpholinomethyl)thienyl-2-yl)buta-1,3-diynyl)benzamide]",1,4,,,36.5 ± 3.67,0.88 ± 0.07,16.8 ± 0.6,2.48 ± 0.06,919 ± 100,921 ± 100,
CC1(C)S[C@@H]2[C@H](NC(=O)[C@H](N)c3ccccc3)C(=O)N2[C@H]1C(=O)O [Ampicillin],,,> 128,> 128,,,,,,,
O=C(O)c1cn(C2CC2)c2cc(N3CCNCC3)c(F)cc2c1=O [Ciprofloxacin],,,4,32,,,,,,,
